# Test results as given in US20260256747A1, “ARYL-TRIAZOLYL AND RELATED GPR84 ANTAGONISTS AND USES THEREOF” (Liminal BioSciences Limited, priority 2022, published 2026).
# Target: T1, human GPR84 receptor (Homo sapiens, UniProt Q9NQS5)
# T1 construct: host or cells: HEK293 cells, transient transfection
# Assay: Gαi biosensor BRET assay in HEK293 cells transfected with GPR84, stimulated with the GPR84 agonist ZQ-16
# Format: cell-based
# Settings: 200 nmol/L ZQ-16; for inhibition at 10 µM / inhibition at 2 µM: HEK293, single concentration; for inhibition at 10 µM: concentration class F = 10 μM; for inhibition at 2 µM: concentration class A = 2 μM
# Source text: Background—The following assays can be used for determination of GPR84 activation in living HEK293 cells. The Gαi BRET biosensor (Gagnon et al., 2018; Gales et al., 2006. Nat Struct Mol Biol. 13, 778-86; Saulieres et al., 2012. Nat Chem Biol. 8, 622-30) allows to directly monitor GPR84-mediated activation of Gαi. The Gαi biosensor consists of a Rluc8-tagged Gαi2 subunit, a GFP10-tagged Gγ2 subunit, and an untagged GB1. Agonist stimulation and GPR84 activation triggers a physical separation between the RLuc8-Gαi donor and the GFP10-Gγ2 acceptor, resulting in a decrease in BRET signal whose amplitude is correlated to ligand efficacy (Gales et al., 2006). Moreover, signaling functions of GPCRs are tightly regulated by endocytosis, the targeting of receptors to endosomes and their sorting to lysosomes or recycling to the plasma membrane. The early endosomes (EEs) trafficking assay (Namkung et al., 2016. Nat Commun. 7, 12178) uses Rluc8-tagged GPR84 and Renilla GFP (rGFP) attached to the FYVE domain from human endofin/zinc finger FYVE domain-containing protein 16, which binds phosphatidylinositol 3-phosphate in EEs. Agonist stimulation of GPR84-Rluc8 leads to trafficking of the receptor to EEs, and ensuing increase of the donor concentration relative to the rGFP-FYVE acceptor anchored in the same cellular compartment, and thus results in an increase in BRET signal.
# Plasmids—The cDNA clones for human GPR84 receptor, human Gαi2, Gβ1, and Gγ2 were obtained from the cDNA Resource Center (www.cdna.org). GFP10 (F64L, S147P, S202F and H231L variant of Aequorea victoria Green Fluorescent Protein) gBlocks gene fragments (Integrated DNA Technologies, IA) and linker were inserted in frame at the N-terminus of human Gγ2. Rluc8 (A^55T, Cl24A, S130A, K136R, A^143M, M185V, M253L, and S287L variant of the Renilla reniformis luciferase) gBlocks gene fragment was inserted with linkers in frame in between residues 91 and 92 of Gαi2 or at the C-terminus of GPR84. The FYVE domain from human endofin (residues Q739 to K806) attached in frame at the C terminus of a humanized Renilla GFP (rGFP), were synthesized as gBlocks gene fragments.
# Bioluminescence Resonance Energy Transfer (BRET) Measurement-HEK293 cells were transfected with GPR84-Rluc8 and rGFP-FYVE for the EEs trafficking biosensor or with GPR84, Gαi2-Rluc8, GFP10-Gγ2, and Gβ1 for the Gαi biosensor. The following day, transiently transfected cells were seeded in 96-well white clear bottom microplates coated with poly-D-lysine and left in culture for 24 hours. Cells were washed once with Tyrode's buffer (140 mmol/L NaCl, 1 mmol/L CaCl2, 2.7 mmol/L KCl, 0.49 mmol/L MgCl2, 0.37 mmol/L NaH2PO4, 5.6 mmol/L glucose, 12 mmol/L NaHCO3, and 25 mmol/L HEPES, pH 7.5) before performing assays in Tyrode's buffer. Test compounds were incubated with cells for 5 (Gai) or 15 (EEs) minutes at 37° C. before addition of 200 nmol/L of the GPR84 agonist ZQ-16 (2-(Hexylthio)-6-hydroxy-4 (3H)-pyrimidinone) for 5 minutes at room temperature (Gai) or 30 minutes at 37° C. (EEs). The Rluc8 substrate coelenterazine 400A (Prolume, Lakeside, AZ) was added at a final concentration of 5 μmol/L and BRET readings were collected using an Infinite M1000 microplate reader (Tecan, Morrisville, NC). BRET2 readings between Rluc8 and GFP10 or rGFP were collected by sequential integration of the signals detected in the 370 to 450 nm (Rluc8) and 510 to 540 nm (GFP10, rGFP) windows. The BRET signal was calculated as the ratio of light emitted by acceptor (GFP10, rGFP) over the light emitted by donor (Rluc8). The values were corrected to net BRET by subtracting the background BRET signal obtained in cells transfected with Rluc8 constructs alone. Ligand-promoted net BRET values were calculated by subtracting vehicle-induced net BRET from ligand-induced net BRET.
# T1 sequence (Q9NQS5 whole entry): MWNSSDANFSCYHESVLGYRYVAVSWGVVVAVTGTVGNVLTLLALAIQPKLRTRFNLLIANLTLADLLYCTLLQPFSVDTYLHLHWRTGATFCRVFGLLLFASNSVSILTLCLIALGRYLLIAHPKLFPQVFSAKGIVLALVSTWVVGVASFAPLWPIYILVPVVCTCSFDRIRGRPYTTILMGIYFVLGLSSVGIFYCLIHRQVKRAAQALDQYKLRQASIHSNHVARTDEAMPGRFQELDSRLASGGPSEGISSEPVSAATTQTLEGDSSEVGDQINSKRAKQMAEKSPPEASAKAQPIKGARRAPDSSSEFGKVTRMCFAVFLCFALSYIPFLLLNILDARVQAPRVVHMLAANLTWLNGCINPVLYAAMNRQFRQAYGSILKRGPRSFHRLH
SMILES,inhibition at 10 µM [%],IC50 [nM],inhibition at 2 µM [%]
CN(C)c1cc(N2CCN(Cc3ccccn3)CC2)ccc1-c1cn(CC2OCC(C)(C)CO2)cn1 [Compound I-137],≤ 25,–,–
Clc1cc(N2CCN(Cc3ccccn3)CC2)cnc1-c1c[nH]cn1 [Compound I-215],≤ 25,–,–
CN(C)c1cc(N2CC(C)(CO)C2)c(F)cc1-c1cn(CC2OCC3(CC3)CO2)cn1 [Compound I-52],> 75,≤ 300,–
CN(C)C(=O)Cn1cc(-c2ncc(-c3nnn[nH]3)cc2OC2CC2)nn1 [Compound I-232],50 to 75,–,–
c1c[nH]c(-c2cnc(-c3cn(CC4OCC5(CC5)CO4)nn3)c(OC3CC3)c2)n1 [Compound I-229],≤ 25,–,–
FC1(F)CC12CN(c1cnc(-c3cn(CC4OCC5(CC5)CO4)nn3)c(OC3CC3)c1)C2 [Compound I-18],25 to 50,–,–
[2H]C([2H])([2H])N(c1cc(N2CC(C)(CO)C2)ccc1-c1cn(CC2OCC(C)(C)CO2)nn1)C([2H])([2H])[2H] [Compound I-50],–,300 to 1000,–
O=C(Cn1cc(-c2ncc(C#CC3CC3)cc2OC2CC2)nn1)N1CC[C@@H](O)C1 [Compound I-245],> 75,1000 to 3000,–
c1cc(-c2cnc(-c3cn(CC4OCC5(CC5)CO4)nn3)c(OC3CC3)c2)n[nH]1 [Compound I-235],–,≤ 300,> 75
O=C(Cn1cnc(-c2ncc(C#CC3CC3)cc2OC2CC2)c1)N1CCCC1 [Compound I-242],50 to 75,–,–
CN(C)C(=O)Cn1cc(-c2nnc(-c3cc(C#CC4CC4)ccc3F)o2)nn1 [Compound I-262],≤ 25,–,–
CCc1cc(N2CCN(Cc3ccccn3)CC2)ccc1-c1cn(CC2OCC3(CC3)CO2)cn1 [Compound I-56],> 75,≤ 300,–
CN(C)c1cc(N2CC3(COC3)C2)ccc1-c1cn(CC2OCC3(CC3)CO2)cn1 [Compound I-42],> 75,–,–
O=C(Cn1cc(-c2ncc(C#CC3CC3)cc2OC2CC2)nn1)N1C[C@H](O)[C@@H](O)C1 [Compound I-247],> 75,–,–
c1nc(-c2cn(CC3OCC4(CC4)CO3)nn2)c(OC2CC2)cc1-c1cnn[nH]1 [Compound I-224],–,≤ 300,> 75
CC1(C)COC(Cn2cc(-c3ncc(C(F)(F)F)cc3OC3CC3)nn2)OC1 [Compound I-49],–,–,50 to 75

SMILES,inhibition at 10 µM [%],IC50 [nM],inhibition at 2 µM [%]
"CN(C)C(=O)Cn1cc(-c2ncc(C#CC3CC3)cc2OC2CC2)nn1 [Compound I-23, 2-(4-(3-cyclopropoxy-5-(cyclopropylethynyl)pyridin-2-yl)-1H-1,2,3-triazol-1-yl)-N,N-dimethylacetamide]",> 75,1000 to 3000,–
CN(C)c1cc(N2CC(C)(CO)C2)ccc1-c1cn(CC2OCC(C)(C)CO2)cn1 [Compound I-39],> 75,300 to 1000,–
CN(C)C(=O)Cn1cc(-c2nnc(-c3ccc(C#CC4CC4)cc3F)o2)nn1 [Compound I-261],≤ 25,–,–
Cn1cc(-c2cnc(-c3cn(CC4OCC5(CC5)CO4)nn3)c(OC3CC3)c2)nn1 [Compound I-227],–,≤ 300,> 75
CC1(CO)CN(c2cnc(-c3cn(CC4OCC(F)(F)CO4)nn3)c(OC3CC3)c2)C1 [Compound I-27],50 to 75,–,–
CC1(CO)CN(c2cnc(-c3cn(CC4CC5(CC5)CO4)nn3)c(OC3CC3)c2)C1 (centres unmarked) [Compound I-26],> 75,–,–
Cc1ccc(C#CC2CC2)cc1-c1nnc(-c2cn(CC(=O)N(C)C)nn2)o1 [Compound I-260],≤ 25,–,–
O=C(NC1CC1)c1cnc(-c2cn(CC3OCC4(CC4)CO3)nn2)c(OC2CC2)c1 [Compound I-57],25 to 50,–,–
CCc1cc(C#CC(N)=O)ccc1-c1cn(CC2OCC(C)(C)CO2)nn1 [Compound I-37],> 75,≤ 300,–
CN(C)c1cc(N2CC(C)(CO)C2)ccc1-c1cn(CC2OCC3(CC3)CO2)cn1 [Compound I-41],–,≤ 300,> 75
Cc1cc(C#CC2CC2)ccc1-c1cn(Cc2cocn2)nn1 [Compound I-13],≤ 25,–,–
O=C(Cn1cc(-c2ncc(C#CC3CC3)cc2OC2CC2)cn1)N1CCCC1 [Compound I-217],25 to 50,–,–
O=C(O)Cn1cc(-c2ncc(C#CC3CC3)cc2OC2CC2)nn1 [Compound I-63],≤ 25,–,–
CN(C)C(=O)COc1cnc(-c2cn(CC3OCC4(CC4)CO3)nn2)c(OC2CC2)c1 [Compound I-72],25 to 50,–,–
C(#CC1CC1)Cn1cc(-c2ncc(-c3nnn[nH]3)cc2OC2CC2)nn1 [Compound I-234],> 75,–,–
c1nc(-c2cn(CC3OCC4(CC4)CO3)nn2)c(OC2CC2)cc1N1CC2(CC2)C1 [Compound I-17],> 75,300 to 1000,–

# Other lines, results leading:
inhibition at 10 µM [%],IC50 [nM],inhibition at 2 µM [%],SMILES
25 to 50,–,–,O=C(Cn1cc(-c2ncc(C#CC3CC3)cc2OC2CC2)nn1)N1CCOCC1 [Compound I-268]
50 to 75,–,–,Cn1nccc1-c1cnc(-c2cn(CC3OCC4(CC4)CO3)nn2)c(OC2CC2)c1 [Compound I-237]
> 75,–,–,CC1(CO)CN(c2ccc(-c3cn(CC4OCC5(CCC5)O4)nn3)c(CC(F)(F)F)c2)C1 (centres unmarked) [Compound I-144]
> 75,300 to 1000,–,CC1(C)COC(Cn2cc(-c3ccc(C#CCOC4CC4)cc3C3CC3)nn2)OC1 [Compound I-3]
–,≤ 300,> 75,Cn1nnc(-c2cnc(-c3cn(CC4OCC5(CC5)CO4)nn3)c(OC3CC3)c2)n1 [Compound I-223]
> 75,–,–,O=C(Cn1cc(-c2ncc(C#CC3CC3)cc2OC2CC2)nn1)N1CCCCC1 [Compound I-267]
≤ 25,–,–,CC1(C)COC(Cn2cc(C#Cc3ccncc3)nn2)OC1 [Compound I-32]
≤ 25,–,–,C(#CC1CC1)c1cnc(-c2cn(Cc3cc4ccccc4[nH]3)nn2)c(OC2CC2)c1 [Compound I-70]
≤ 25,–,–,CN(C)C(=O)CN(C)c1cnc(-c2cn(CC3OCC4(CC4)CO3)nn2)c(OC2CC2)c1 [Compound I-231]
> 75,≤ 300,–,Cc1cc(N2CCN(C(C)c3ccccn3)CC2)ccc1-c1cn(CC2OCC3(CC3)CO2)cn1 (centres unmarked) [Compound I-48]
> 75,–,–,CN(C)C(=O)Cn1cnc(-c2ncc(C#CC3CC3)cc2OC2CC2)c1 [Compound I-51]
> 75,–,–,Cc1cc(N2CCN(Cc3ccccn3)CC2)ccc1-c1cn(CC2OCC3(CC3)CO2)cn1 [Compound I-139]
> 75,–,–,CN(C)C(=O)Cn1cc(-c2ncc(C#CC3(O)CC3)cc2OC2CC2)nn1 [Compound I-252]
–,–,≤ 25,Cc1cc(C#CC2CC2)ccc1-c1cn(Cc2cncs2)nn1 [Compound I-12]
–,≤ 300,> 75,CC(=O)NCC#Cc1cnc(-c2cn(CC3OCC(C)(C)CO3)nn2)c(OC2CC2)c1 [Compound I-15]
≤ 25,–,–,CN(C)C(=O)Cn1cc(-c2ncc(C#N)cc2OC2CC2)nn1 [Compound I-240]
≤ 25,–,–,Cc1cc(C#CC2CC2)cnc1-c1nnc(-c2cn(CC3OCC4(CC4)CO3)nn2)o1 [Compound I-256]
≤ 25,–,–,[2H]C([2H])([2H])C1(C([2H])([2H])[2H])COC(Cn2cc(-c3ccc(N4CC(C)(CO)C4)cc3N(C)C)nn2)OC1 [Compound I-206]
